The values that follow come from DBAASP.

Among the test systems are Staphylococcus aureus; Bacillus cereus; Escherichia coli; Escherichia coli B; Pseudomonas aeruginosa; Bacillus subtilis 168; Klebsiella pneumoniae; Salmonella typhimurium.
What all share (experiment): ≥ marks a high value that may be exact or a test limit, other limits are often not marked, values filed in µg/mL are converted to µM
The test system of experiment [1] is Staphylococcus aureus NCTC 12493.
Experiment [2] concerns Enterococcus faecalis NCTC 12697.
In experiment [3] the test system is Escherichia coli NCTC 10418.
For experiment [4], the system named is Staphylococcus aureus NCTC 10788.
In experiment [5] the test system is Pseudomonas aeruginosa ATCC 27853.
In experiment [6] the test system is Candida albicans NCYC 1467.
For experiment [7], the system named is Klebsiella pneumoniae ATCC 43816.
Experiment [8] relates to Candida albicans F7-39/IDE99.
The test system of experiment [9] is Escherichia coli DH5alpha.

Values after ≈ are worked out from the molar mass of the structure shown. Bounds are passed on as bounds.

One may read the MIC as the lowest concentration found to suppress growth. On to `CSCC[C@H](NC(=O)[C@H](CC(=O)O)NC(=O)[C@@H](NC(=O)[C@@H](NC(=O)[C@H](CCCCN)NC(=O)[C@H](CC(N)=O)NC(=O)[C@H](CC(C)C)NC(=O)[C@@H](NC(=O)[C@H](C)NC(=O)[C@H](CCCCN)NC(=O)CNC(=O)[C@H](C)NC(=O)[C@H](C)NC(=O)[C@H](CCCCN)NC(=O)CNC(=O)[C@@H](NC(=O)[C@H](CC(N)=O)NC(=O)[C@H](CCCCN)NC(=O)[C@H](CC(C)C)NC(=O)[C@H](CC(C)C)NC(=O)[C@H](CC(=O)O)NC(=O)[C@H](CCCCN)NC(=O)[C@H](Cc1c[nH]c2ccccc12)NC(=O)[C@H](CC(C)C)NC(=O)[C@H](C)N)C(C)C)C(C)C)C(C)C)[C@@H](C)O)C(=O)N[C@H](C(=O)N[C@@H](CC(N)=O)C(=O)N[C@@H](CCC(N)=O)C(N)=O)C(C)C` [ALWKDLLKNVGKAAGKAVLNKVTDMVNQ], for which the MIC is 8 µM (≈ 24.2 µg/mL) in experiment [1]; no less than 128 µM in experiment [2]; 4 µM (≈ 12.1 µg/mL) in experiment [3]; 4 µM (≈ 12.1 µg/mL) in [4]; 8 µM (≈ 24.2 µg/mL) in experiment [5]; 4 µM (≈ 12.1 µg/mL) in [6]. Further, in [7], the MIC came to 8 µM (≈ 24.2 µg/mL).

With `CC[C@H](C)[C@H](NC(=O)[C@H](C)NC(=O)[C@H](C)NC(=O)[C@@H]1CCCN1C(=O)[C@@H](NC(=O)[C@H](CC(C)C)NC(=O)[C@H](CCCCN)NC(=O)CNC(=O)[C@H](C)NC(=O)[C@@H](NC(=O)[C@H](CCCCN)NC(=O)[C@H](CC(C)C)NC(=O)[C@@H](NC(=O)[C@H](C)NC(=O)CNC(=O)[C@H](CC(C)C)NC(=O)[C@@H](N)Cc1ccccc1)C(C)C)C(C)C)C(C)C)C(=O)N[C@H]1CSSC[C@@H](C(=O)O)NC(=O)[C@H](CCCCN)NC(=O)[C@H](CCCCN)NC(=O)[C@H](CO)NC(=O)[C@H]([C@@H](C)CC)NC(=O)[C@H](CCCCN)NC1=O` [FLGAVLKVAGKLVPAAICKISKKC], the MIC came to 4 µM (≈ 9.82 µg/mL) in [1]; 8 µM (≈ 19.6 µg/mL) in [2]; 4 µM (≈ 9.82 µg/mL) in experiment [3]; 2 µM (≈ 4.91 µg/mL) in experiment [4]; 32 µM (≈ 78.6 µg/mL) in experiment [5]; 2 µM (≈ 4.91 µg/mL) in experiment [6]. Also, the MIC in experiment [7] amounted to 8 µM (≈ 19.6 µg/mL).

As to `CC(C)C[C@H](NC(=O)[C@H](CCCCN)NC(=O)[C@H](Cc1ccccc1)NC(=O)[C@@H](NC(=O)[C@@H](NC(=O)CNC(=O)[C@H](CC(C)C)NC(=O)[C@@H](N)Cc1ccccc1)C(C)C)C(C)C)C(=O)N[C@@H](C)C(=O)N[C@@H](CO)C(=O)N[C@@H](CCCCN)C(=O)N[C@H](C(=O)N[C@@H](Cc1ccccc1)C(=O)N1CCC[C@H]1C(=O)N[C@@H](C)C(=O)N[C@H](C(=O)N[C@H](C(=O)NCC(=O)N[C@@H](CCCCN)C(=O)N[C@H](C(=O)O)C(C)C)C(C)C)C(C)C)C(C)C` [FLGVVFKLASKVFPAVVGKV], the MIC was 15.2 µM (≈ 32 µg/mL) with Staphylococcus aureus, 30.4 µM (≈ 64 µg/mL) against Bacillus cereus and 122 µM (≈ 256 µg/mL) in the experiment on Escherichia coli.

As for `CC[C@H](C)[C@@H]1NC(=O)[C@H](C)NC(=O)[C@@H](NC(=O)[C@H](CCCCN)NC(=O)[C@H](C)NC(=O)[C@H](C)NC(=O)[C@H](CC(C)C)NC(=O)CNC(=O)[C@H](C)NC(=O)[C@@H](NC(=O)[C@H](CC(C)C)NC(=O)[C@@H]2CCCN2C(=O)[C@H](CC(C)C)NC(=O)[C@@H](N)Cc2ccccc2)[C@@H](C)CC)CSSC[C@@H](C(=O)O)NC(=O)[C@H](CCCCN)NC(=O)[C@H](CCCCN)NC(=O)[C@H]([C@@H](C)O)NC1=O` [FLPLIAGLAAKCAITKKC], the MIC in experiment [1] is no less than 512 µM; in [2] it was no less than 512 µM; in [3], no less than 512 µM; in experiment [4], no less than 512 µM; in [5] it was greater than 512 µM; in experiment [6], no less than 512 µM. The compound further came in with an MIC in [7] of no less than 512 µM.

For the compound `CC(C)C[C@H](NC(=O)[C@H](CCC(N)=O)NC(=O)[C@H](CCC(N)=O)NC(=O)[C@H](C)NC(=O)CNC(=O)[C@H](C)NC(=O)[C@H](CCCCN)NC(=O)CNC(=O)[C@@H](NC(=O)[C@H](CCC(N)=O)NC(=O)[C@H](CCCCN)NC(=O)[C@@H]1CCCN1C(=O)[C@H](CC(C)C)NC(=O)[C@H](Cc1ccc(O)cc1)NC(=O)[C@H](CCCCN)NC(=O)[C@H](C)NC(=O)CNC(=O)[C@H](C)NC(=O)[C@H](CCCCN)NC(=O)[C@H](Cc1ccccc1)NC(=O)[C@H](CC(C)C)NC(=O)[C@H](CO)NC(=O)[C@H](CO)NC(=O)[C@H](Cc1ccccc1)NC(=O)CN)C(C)C)C(N)=O` [GFSSLFKAGAKYLPKQVGKAGAQQL], the MIC is no less than 512 µM in [1]; no less than 512 µM in experiment [2]; no less than 512 µM in experiment [3]; no less than 512 µM in experiment [4]; greater than 512 µM in experiment [5]; no less than 512 µM in experiment [6]. This compound yielded an MIC in experiment [7] of no less than 512 µM.

As for `CC[C@H](C)[C@H](NC(=O)[C@H](CCCCN)NC(=O)[C@H](CO)NC(=O)[C@H](Cc1c[nH]c2ccccc12)NC(=O)[C@H](CC(C)C)NC(=O)CN)C(=O)N[C@@H](CCCCN)C(=O)N[C@@H](CCCCN)C(=O)N[C@@H](C)C(=O)N[C@@H](C)C(=O)N[C@@H](CCCCN)C(=O)N[C@H](C(=O)N[C@@H](C)C(=O)NCC(=O)N[C@@H](CCCCN)C(=O)N[C@@H](C)C(=O)N[C@@H](C)C(=O)N[C@@H](CC(C)C)C(=O)NCC(=O)N[C@@H](Cc1ccccc1)C(=O)N[C@H](C(=O)N[C@@H](CC(N)=O)C(=O)N[C@@H](CCCCN)C(=O)N[C@@H](CCSC)C(=O)N[C@H](C(N)=O)C(C)C)C(C)C)[C@@H](C)O` [GLWSKIKKAAKTAGKAALGFVNKMV], the MIC in experiment [1] was 2 µM (≈ 5.23 µg/mL); in [2], 2 µM (≈ 5.23 µg/mL); in experiment [3], 2 µM (≈ 5.23 µg/mL); in [4], 2 µM (≈ 5.23 µg/mL); in experiment [5], 4 µM (≈ 10.5 µg/mL); in experiment [6] it was 4 µM (≈ 10.5 µg/mL). In experiment [7], this compound yielded an MIC of 2 µM (≈ 5.23 µg/mL).

For the compound `CC[C@H](C)[C@H](NC(=O)[C@H](CC(C)C)NC(=O)[C@H](Cc1cnc[nH]1)NC(=O)CNC(=O)[C@H](CC(C)C)NC(=O)[C@@H](NC(=O)[C@H](CCCCN)NC(=O)[C@H](CO)NC(=O)[C@H](Cc1c[nH]c2ccccc12)NC(=O)[C@H](CCSC)NC(=O)CN)[C@@H](C)CC)C(=O)N[C@@H](CCCN=C(N)N)C(N)=O` [GMWSKILGHLIR], the MIC against Staphylococcus aureus was 7.7 µM (≈ 10.9 µg/mL); with Escherichia coli B it was 3.8 µM (≈ 5.36 µg/mL); in experiment [8], 6.2 µM (≈ 8.74 µg/mL); against Pseudomonas aeruginosa, 45 µM (≈ 63.4 µg/mL); against Bacillus subtilis 168, 0.8 µM (≈ 1.13 µg/mL).

`CSCC[C@H](NC(=O)CN)C(=O)N[C@@H](Cc1c[nH]c2ccccc12)C(=O)N[C@@H](CO)C(=O)N[C@@H](CCCCN)C(=O)N[C@@H](CC(C)C)C(=O)N[C@@H](CC(C)C)C(=O)NCC(=O)N[C@@H](Cc1cnc[nH]1)C(=O)N[C@@H](CC(C)C)C(=O)N[C@@H](CC(C)C)C(=O)N[C@@H](CCCN=C(N)N)C(N)=O` [GMWSKLLGHLLR]: the MIC in the experiment on Staphylococcus aureus was found to be 7.7 µM (≈ 10.9 µg/mL); against Escherichia coli B, 3 µM (≈ 4.23 µg/mL); in experiment [8], 5 µM (≈ 7.05 µg/mL); against Pseudomonas aeruginosa, 20.2 µM (≈ 28.5 µg/mL); against Bacillus subtilis 168, 1.3 µM (≈ 1.83 µg/mL).

Take `CC[C@H](C)[C@H](N)C(=O)N[C@@H](CC(C)C)C(=O)N1CCC[C@H]1C(=O)N[C@@H](Cc1c[nH]c2ccccc12)C(=O)N[C@@H](CCCCN)C(=O)N[C@@H](Cc1c[nH]c2ccccc12)C(=O)N[C@@H](C)C(=O)N[C@@H](Cc1c[nH]c2ccccc12)C(=O)N[C@@H](Cc1c[nH]c2ccccc12)C(=O)N[C@@H](C)C(=O)N[C@@H](Cc1c[nH]c2ccccc12)C(=O)N[C@@H](CCCN=C(N)N)C(=O)N[C@@H](CCCN=C(N)N)C(N)=O` [ILPWKWAWWAWRR]: the MIC in [9] was found to be 15 µM (≈ 27.8 µg/mL); with Klebsiella pneumoniae it was 25 µM (≈ 46.4 µg/mL); against Pseudomonas aeruginosa, 100 µM (≈ 185 µg/mL); in the experiment with Salmonella typhimurium it was 25 µM (≈ 46.4 µg/mL).

On to `CSCC[C@H](NC(=O)[C@H](C)NC(=O)[C@H](CC(C)C)NC(=O)[C@H](CCCCN)NC(=O)[C@H](CC(C)C)NC(=O)[C@H](CC(C)C)NC(=O)[C@H](CCCCN)NC(=O)[C@H](CCCCN)NC(=O)[C@@H](NC(=O)[C@@H](N)CC(C)C)C(C)C)C(=O)NCC(=O)N[C@@H](Cc1ccccc1)C(=O)NCC(N)=O` [LVKKLLKLAMGFG], for which the MIC in the experiment on Staphylococcus aureus was 90 µM (≈ 128 µg/mL); against Escherichia coli B, 14.7 µM (≈ 20.8 µg/mL); in [8], 25 µM (≈ 35.4 µg/mL); with Pseudomonas aeruginosa it was greater than 100 µM; with Bacillus subtilis 168, 3.7 µM (≈ 5.24 µg/mL).

As for `CC[C@H](C)[C@H](NC(=O)[C@@H](NC(=O)[C@H](CS)NC(=O)[C@H](Cc1ccc(O)cc1)NC(=O)[C@@H](NC(=O)[C@H](CO)NC(=O)[C@@H]1CCCN1C(=O)[C@@H](NC(=O)[C@@H](NC(=O)[C@H](CCCCN)NC(=O)[C@H](CO)NC(=O)[C@H](C)NC(=O)[C@H](CC(C)C)NC(=O)[C@H](CCCCN)NC(=O)[C@H](Cc1ccccc1)NC(=O)[C@@H](NC(=O)[C@@H](N)C(C)C)C(C)C)C(C)C)C(C)C)C(C)C)[C@@H](C)O)C(=O)N[C@H](C(=O)N[C@@H](CCCCN)C(=O)N[C@@H](CCCCN)C(=O)O)[C@@H](C)O` [VVFKLASKVVPSVYCTITKK], the MIC with Bacillus cereus was no less than 116 µM; with Escherichia coli, 116 µM (≈ 256 µg/mL).
